Laboratory results published in the supplement of paper PMC10331698.
± gives the standard deviation of the averaged measurements.

Key:
Assay in all cases: level (log10 ratio to DMSO vehicle control); higher = higher biomarker level / cell amount than vehicle control
Details in all cases: in DMSO
[1] = compound: O=C(O)C(F)(F)C(F)(F)C(F)(F)C(F)(F)C(F)(F)C(F)(F)C(F)(F)F [Perfluorooctanoic acid]
Experimental: (§1)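 BioMAP Diversity Plus panel of 12 human primary cell co-culture systems (3C, 4H, LPS, SAg, BT, BF4T, BE3C, CASM3C, HDF3CGF, KF3CT, MyoF, Mphg). Compounds were added 1 h before stimulation and left for 24 h (MyoF 48 h; BT 72 h for soluble read-outs or 6 d for IgG). Biomarkers were read by ELISA, cytotoxicity by SRB, PBMC viability and proliferation by Alamar Blue. Each well value was divided by the mean of 8 DMSO control wells on the same plate and log10 transformed; duplicate blinded samples were tested at 4 concentrations.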

[2] = compound: FC(F)(F)COC(OCC(F)(F)F)OCC(F)(F)F [tris(Trifluoroethoxy)methane]
Experimental: as §1

[3] = compound: CN(Cc1cnc2nc(N)nc(N)c2n1)c1ccc(C(=O)N[C@@H](CCC(=O)O)C(=O)O)cc1 [Methotrexate]
Experimental: as §1

[4] = compound: O=C(O)C(F)(F)C(F)(F)C(=O)O [Tetrafluorosuccinic acid]
Experimental: as §1

[5] = compound: OC(C(F)(F)F)(C(F)(F)F)C(O)(C(F)(F)F)C(F)(F)F [Perfluoropinacol]
Experimental: as §1

[6] = compound: Cc1ccc(S(=O)(=O)OCC(F)(F)C(F)(F)C(F)(F)C(F)(F)C(F)(F)C(F)F)cc1 [1H,1H,7H-Perfluoroheptyl 4-methylbenzenesulfonate]
Experimental: as §1

| Test System | level (log10) ([1]; 6700 nM) | level (log10) ([1]; 20000 nM) | level (log10) ([1]; 60000 nM) | level (log10) ([2]; 6700 nM) | level (log10) ([2]; 20000 nM) | level (log10) ([2]; 60000 nM) | level (log10) ([3]; 1500 nM) | level (log10) ([3]; 4400 nM) | level (log10) ([3]; 13000 nM) | level (log10) ([3]; 40000 nM) | level (log10) ([4]; 6700 nM) | level (log10) ([4]; 20000 nM) | level (log10) ([4]; 60000 nM) | level (log10) ([5]; 6700 nM) | level (log10) ([5]; 20000 nM) | level (log10) ([6]; 6700 nM) | level (log10) ([6]; 20000 nM) | level (log10) ([6]; 60000 nM) |
| --- | --- | --- | --- | --- | --- | --- | --- | --- | --- | --- | --- | --- | --- | --- | --- | --- | --- | --- |
| BE3C:Keratin 8/18 | -0.0145 ± 0.0064 | -0.01 ± 0.0014 | 0.0065 ± 0.028 | -0.0035 ± 0.019 | -0.0215 ± 0.021 | 0.01 ± 0.0057 | -0.0105 ± 0.047 | -0.035 ± 0.042 | -0.022 ± 0.057 | -0.024 ± 0.025 | 0.0225 ± 0.012 | 0.009 ± 0.013 | 0.0165 ± 0.00071 | -0.0145 ± 0.00071 | -0.019 ± 0.0028 | -0.006 ± 0.0085 | -0.006 ± 0.048 | -0.0065 ± 0.013 |
| CASM3C:IL-6 | -0.0135 ± 0.019 | -0.022 ± 0.027 | -0.008 ± 0.031 | -0.019 ± 0.0028 | -0.0295 ± 0.011 | 0.005 ± 0.067 | -0.035 ± 0.041 | -0.087 ± 0.076 | -0.009 ± 0.023 | -0.039 ± 0.041 | -0.0165 ± 0.015 | -0.0295 ± 0.0078 | -0.0015 ± 0.036 | -0.0045 ± 0.025 | 0.033 ± 0.0085 | -0.035 ± 0.013 | -0.0435 ± 0.005 | -0.0155 ± 0.033 |
| HDF3CGF:CD54/ICAM-1 | 0.005 ± 0.0057 | 0.0055 ± 0.011 | -0.0035 ± 0.005 | -0.0195 ± 0.00071 | -0.013 ± 0.034 | -0.008 ± 0.0057 | -0.0015 ± 0.00071 | 0.0045 ± 0.005 | 0.0055 ± 0.013 | -0.0065 ± 0.025 | -0.0055 ± 0.03 | -0.006 ± 0.0071 | -0.0105 ± 0.016 | 0.012 ± 0.011 | 0.005 ± 0.018 | 0.0005 ± 0.016 | 0.0385 ± 0.042 | 0.026 ± 0.055 |
| BE3C:tPA | -0.0515 ± 0.025 | -0.0285 ± 0.036 | -0.038 ± 0.0085 | -0.0075 ± 0.013 | -0.028 ± 0.024 | -0.0125 ± 0.021 | 0.012 ± 0.0071 | -0.004 ± 0.075 | 0.0085 ± 0.091 | 0.0215 ± 0.033 | -0.037 ± 0.023 | -0.0505 ± 0.026 | -0.0365 ± 0.022 | -0.0455 ± 0.0078 | -0.224 ± 0.012 | -0.002 ± 0.044 | -0.032 ± 0.054 | -0.013 ± 0.034 |
| KF3CT:IL-1alpha | 0.018 ± 0.0057 | 0.012 ± 0.0014 | -0.0395 ± 0.0035 | -0.0045 ± 0.0078 | -0.0055 ± 0.0092 | 0.0055 ± 0.019 | -0.0145 ± 0.013 | -0.0225 ± 0.032 | -0.002 ± 0.052 | -0.0145 ± 0.039 | -0.012 ± 0.0042 | -0.0385 ± 0.019 | 0.007 ± 0.023 | 0.0765 ± 0.028 | 0.155 ± 0.032 | -0.053 ± 0.024 | -0.01 ± 0.024 | 0.013 ± 0.038 |
| CASM3C:PAI-I | 0.003 ± 0.0085 | -0.0005 ± 0.012 | 0.01 ± 0.018 | -0.003 ± 0.03 | 0.0015 ± 0.013 | 0.007 ± 0.0057 | 0.004 ± 0.013 | 0.0035 ± 0.0064 | 0.0125 ± 0.0035 | 0.0105 ± 0.0021 | 0.0025 ± 0.0021 | 0.009 ± 0.0042 | 0.0105 ± 0.0035 | -0.006 ± 0.0071 | -0.0075 ± 0.0064 | -0.004 ± 0.0028 | -0.007 ± 0.0085 | -0.008 ± 0.016 |
| HDF3CGF:TIMP-2 | -0.013 ± 0.014 | 0.0045 ± 0.019 | 0.033 ± 0.0042 | -0.0165 ± 0.029 | -0.002 ± 0.037 | -0.0105 ± 0.005 | -0.0655 ± 0.032 | 0 ± 0.11 | -0.005 ± 0.085 | -0.0335 ± 0.15 | -0.052 ± 0.042 | -0.069 ± 0.025 | -0.1 ± 0.018 | -0.0625 ± 0.005 | -0.126 ± 0.0021 | -0.042 ± 0.081 | -0.101 ± 0.053 | -0.032 ± 0.035 |
| MyoF:MMP-1 | -0.032 | -0.018 ± 0.038 | 0.043 ± 0.086 | -0.0085 ± 0.039 | -0.0145 ± 0.021 | 0.02 ± 0.044 | 0.002 ± 0.027 | -0.017 ± 0.02 | -0.004 ± 0.018 | 0.0175 ± 0.0021 | -0.006 ± 0.023 | 0.0025 ± 0.0021 | 0.0535 ± 0.059 | -0.0075 ± 0.012 | -0.027 ± 0.0042 | -0.0115 ± 0.0035 | 0.0185 ± 0.016 | 0.048 ± 0.014 |
| 3C:CD142/Tissue Factor | 0.0395 ± 0.057 | 0.0135 ± 0.071 | 0.049 ± 0.011 | -0.0195 ± 0.07 | -0.009 ± 0.052 | -0.028 | -0.0325 ± 0.042 | -0.0135 ± 0.033 | -0.0175 ± 0.081 | -0.005 ± 0.061 | 0.001 ± 0.042 | 0.0025 ± 0.0064 | 0.006 ± 0.023 | -0.0805 ± 0.026 | -0.158 ± 0.0035 | 0.0065 ± 0.015 | -0.0025 ± 0.021 | -0.0445 ± 0.036 |
| BE3C:uPA | -0.014 ± 0.013 | -0.0065 ± 0.0021 | 0.0185 ± 0.015 | 0.0075 ± 0.021 | -0.004 ± 0.0071 | -0.0175 ± 0.00071 | -0.013 ± 0.0028 | -0.0315 ± 0.033 | -0.0205 ± 0.052 | -0.0015 ± 0.036 | -0.007 ± 0.0057 | -0.016 ± 0.021 | -0.003 ± 0.013 | -0.0055 ± 0.005 | -0.042 ± 0.011 | 0.01 ± 0.018 | -0.0155 ± 0.019 | -0.001 ± 0.0057 |
| HDF3CGF:SRB | -0.0075 ± 0.026 | 0.0325 ± 0.043 | -0.0245 ± 0.056 | 0.003 ± 0.073 | 0.0335 ± 0.0035 | 0.02 ± 0.038 | 0.018 ± 0.034 | -0.0135 ± 0.0035 | 0.025 ± 0.011 | 0.014 ± 0.016 | -0.0125 ± 0.011 | -0.013 ± 0.03 | 0.007 ± 0.044 | -0.027 ± 0.0042 | -0.0055 ± 0.039 | 0.0175 ± 0.033 | -0.0095 ± 0.026 | -0.04 ± 0.055 |
| HDF3CGF:EGFR | -0.065 ± 0.086 | -0.086 ± 0.028 | -0.0965 ± 0.044 | -0.0265 ± 0.015 | -0.016 ± 0.054 | -0.016 ± 0.0085 | -0.0035 ± 0.018 | -0.008 ± 0.0099 | -0.011 ± 0.028 | -0.021 ± 0.027 | -0.0065 ± 0.033 | -0.008 ± 0.0028 | 0.029 ± 0.038 | -0.029 ± 0.057 | -0.146 ± 0.038 | -0.0165 ± 0.016 | -0.056 ± 0.0057 | -0.034 ± 0.0028 |
| CASM3C:CCL2/MCP-1 | 0.007 ± 0.0085 | -0.01 ± 0.03 | 0.0215 ± 0.022 | 0.001 ± 0.0042 | -0.0005 ± 0.0064 | 0.0215 ± 0.035 | 0 ± 0.0028 | -0.0125 ± 0.005 | -0.002 ± 0.016 | -0.0195 ± 0.025 | -0.0005 ± 0.00071 | -0.0165 ± 0.005 | -0.0005 ± 0.025 | 0.0185 ± 0.013 | 0.096 ± 0.017 | -0.0075 ± 0.0035 | -0.02 ± 0.0057 | 0.011 ± 0.025 |
| HDF3CGF:CXCL11/I-TAC | -0.0205 ± 0.011 | -0.016 ± 0.027 | -0.007 ± 0.024 | -0.01 ± 0.0014 | -0.0125 ± 0.021 | -0.0145 ± 0.026 | -0.0095 ± 0.013 | -0.0105 ± 0.033 | -0.008 ± 0.023 | -0.018 ± 0.05 | -0.03 ± 0.035 | -0.0215 ± 0.005 | -0.0565 ± 0.071 | -0.062 ± 0.041 | -0.234 ± 0.015 | -0.005 ± 0.027 | 0.036 ± 0.057 | -0.001 ± 0.092 |
| lMphg:CD40 | -0.0035 ± 0.021 | -0.021 ± 0.0057 | -0.018 ± 0.014 | -0.0235 ± 0.044 | -0.0135 ± 0.012 | -0.0265 ± 0.032 | 0.0125 ± 0.005 | 0.0005 ± 0.013 | -0.0155 ± 0.023 | 0.0045 ± 0.0021 | -0.0125 ± 0.015 | -0.011 ± 0.0014 | 0.009 ± 0.014 | -0.0265 ± 0.019 | -0.202 ± 0.03 | -0.009 ± 0.016 | -0.0175 ± 0.0092 | -0.0135 ± 0.005 |
| CASM3C:CXCL8/IL-8 | 0.014 ± 0.0085 | 0.009 ± 0.0042 | 0.052 ± 0.014 | -0.008 ± 0.0042 | -0.01 ± 0.016 | 0.0055 ± 0.03 | 0.0365 ± 0.057 | 0.0255 ± 0.06 | 0.034 ± 0.05 | 0.063 ± 0.061 | -0.001 ± 0.0042 | -0.0145 ± 0.018 | -0.002 ± 0.016 | 0.004 ± 0.011 | 0.029 | -0.0095 ± 0.015 | -0.0055 ± 0.013 | -0.002 ± 0.0099 |
